# From ChEMBL document CHEMBL3407472, “Multi-parameter optimization of aza-follow-ups to BI 207524, a thumb pocket 1 HCV NS5B polymerase inhibitor. Part 2: Impact of lipophilicity on promiscuity and in vivo toxicity” (Bioorg Med Chem Lett, 2015)
# Experiments:
# [1] = Lipophilicity, log D of the compound at pH 7.4; format: physicochemical; conditions: buffer
# Hepatitis C virus [2] = experiment: Antiviral activity against Hepatitis C virus genotype 1a infected in human Huh cells assessed as inhibition of viral replication by RT-PCR-based replicon assay; format: functional, cell-based, Hepacivirus hominis; conditions: subtype 1a
# Hepatitis C virus [3] = experiment: Antiviral activity against Hepatitis C virus genotype 1b infected in human Huh cells assessed as inhibition of viral replication by RT-PCR-based replicon assay; format: functional, cell-based, Hepacivirus hominis
# [4] = Half life in human liver microsomes at 2 uM; format: ADME
# [5] = Permeability from apical to basolateral side of human Caco2 cells; format: ADME, cell-based; conditions: Caco-2, read-out: permeability
# [6] = Plasma concentration in rat at 2 mg/kg, po each in 0.5% Methylcellulose and 0.3% Tween-80 and 1% N-methylpyrrolidone after 2 hrs; format: ADME, organism-based; parameters: dose 2 mg/kg, route oral
# [7] = Half life in rat liver microsomes at 2 uM; format: ADME
# [8] = Plasma concentration in rat at 2 mg/kg, po each in 0.5% Methylcellulose and 0.3% Tween-80 and 1% N-methylpyrrolidone after 1 hr; format: ADME, organism-based; parameters: dose 2 mg/kg, route oral
# [9] = Lipophilicity, log D of the compound; format: physicochemical; conditions: octanol/water
SMILES,logD [1],EC50 (Hepatitis C virus [2]) [nM],EC50 (Hepatitis C virus [3]) [nM],half-life at 2 µM [4] [h],Papp A→B [5] [×10⁻⁶ cm/s],concentration at 2 h [6] [nM],half-life at 2 µM [7] [h],concentration at 1 h [8] [nM],logD [9]
COc1nc(NC(=O)C2(NC(=O)c3ccc4c(C5CCCC5)c(-c5cnccn5)n(C)c4c3)CCC2)ccc1/C=C/C(=O)O,3.3,46,13,,,,,,
CCOc1nc(NC(=O)C2(NC(=O)c3ccc4c(C5CCCC5)c(-c5ncc(Cl)cn5)n(C)c4c3)CCC2)ccc1/C=C/C(=O)O,> 5.9,24,13,1.1,15,,,,
CCOc1nc(NC(=O)C2(NC(=O)c3ccc4c(C5CCCC5)c(-c5ccc(Cl)cn5)n(C)c4c3)CCC2)ccc1/C=C/C(=O)O,,40,13,2.78,15,,,,
CCOc1nc(NC(=O)C(C)(C)NC(=O)c2ccc3c(c2)c(C)c(-c2ccc(F)cn2)n3C2CCCCC2)cnc1/C=C/C(=O)O,,,12,1.57,,100,1.28,300,
COc1nc(NC(=O)C2(NC(=O)c3ccc4c(C5CCCC5)c(-c5ccccn5)n(C)c4c3)CCC2)ccc1/C=C/C(=O)O,3.5,,15,1.27,,,0.167,,3.5
COc1nc(NC(=O)C2(NC(=O)c3ccc4c(c3)c(C)c(-c3ccc(F)cn3)n4C3CCCCC3)CCC2)ccc1/C=C/C(=O)O,4.2,52,10,,,,,,
CCOc1nc(NC(=O)C2(NC(=O)c3ccc4c(C5CCCC5)c(-c5cncnc5)n(C)c4c3)CCC2)ccc1/C=C/C(=O)O,3.4,,15,1.02,17,,,,
CCOc1nc(NC(=O)C(C)(C)NC(=O)c2ccc3c(C4CCCC4)c(-c4ccc(Cl)cn4)n(C)c3c2)ccc1/C=C/C(=O)O,4.4,9,5,,,,,,
COc1nc(NC(=O)C2(NC(=O)c3ccc4c(c3)c(C)c(-c3ccc(F)cn3)n4C3CCCCC3)CCCC2)cnc1/C=C/C(=O)O,3.2,54,14,,,,,,
CCOc1nc(NC(=O)C2(NC(=O)c3ccc4c(C5CCCC5)c(-c5ccccn5)n(C)c4c3)CCC2)ccc1/C=C/C(=O)O,4.4,,11,0.667,21,,,,
CCOc1nc(NC(=O)C2(NC(=O)c3ccc4c(C5CCCC5)c(-c5cnccn5)n(C)c4c3)CCC2)ccc1/C=C/C(=O)O,3.6,,8,0.55,13,,,,
CCOc1nc(NC(=O)C(C)(C)NC(=O)c2ccc3c(C4CCCC4)c(-c4ncc(Cl)cn4)n(C)c3c2)ccc1/C=C/C(=O)O,4,7,6,,,,,,
COc1nc(NC(=O)C2(NC(=O)c3ccc4c(c3)c(C)c(-c3ccc(F)cn3)n4C3CCCCC3)CCC2)cnc1/C=C/C(=O)O,3.3,310,17,,,,,,
CCOc1nc(NC(=O)C2(NC(=O)c3ccc4c(C5CCCC5)c(-c5ncc(Cl)cn5)n(C)c4c3)CCCC2)ccc1/C=C/C(=O)O,> 6.2,14,3,,,,,,
CCOc1nc(NC(=O)C(C)(C)NC(=O)c2ccc3c(c2)c(C)c(-c2ccc(F)cn2)n3C2CCCCC2)ccc1/C=C/C(=O)O,3.9,14,3,,,,,,
COc1nc(NC(=O)C(C)(C)NC(=O)c2ccc3c(C4CCCC4)c(-c4ncc(Cl)cn4)n(C)c3c2)cnc1/C=C/C(=O)O,2.6,270,17,,,,,,
COc1nc(NC(=O)C(C)(C)NC(=O)c2ccc3c(C4CCCC4)c(-c4ccc(F)cn4)n(C)c3c2)ccc1/C=C/C(=O)O,3.3,67,12,,,,,,
CCOc1nc(NC(=O)C(C)(C)NC(=O)c2ccc3c(C4CCCC4)c(-c4ncc(Br)cn4)n(C)c3c2)ccc1/C=C/C(=O)O,> 4.7,8,5,,,,,,
